For assay [1], the target named is T1, HCV NS3/4A protease complex (BMS strain) (Hepatitis C virus genotype 1a, UniProt P27958, C1454S).
T1 construct: HCV NS3/4A protease complex (amino acids 1027 to 1711); inferred from pET21b vector and Ni-NTA purification; made in house; host or cells: Escherichia coli BL21 (DE3), pET21b
Put plainly: Recombinant HCV NS3/4A protease complex FRET peptide assay, BMS strain. The assay is classed as biochemical, HCV genotype 1a. The note with it: NS3/4A BMS Strain, activity range; read-out: IC50 a, b, c (Activity Table). From the text:
Recombinant HCV NS3/4A Protease Complex FRET Peptide Assay
The purpose of this in vitro assay was to measure the inhibition of HCV NS3 protease complexes, derived from the BMS, H77C or J4l6S strains, as described below, by compounds of the present invention. This assay provides an indication of how effective compounds of the present invention would be in inhibiting HCV proteolytic activity.
Serum from an HCV-infected patient was obtained from Dr. T. Wright, San Francisco Hospital. An engineered full-length cDNA template of the HCV genome (BMS strain) was constructed from DNA fragments obtained by reverse transcription-PCR (RT-PCR) of serum RNA and using primers selected on the basis of homology between other genotype la strains. From the determination of the entire genome sequence, a genotype la was assigned to the HCV isolate according to the classification of Simmonds et al. (See P Simmonds, K A Rose, S Graham, S W Chan, F McOmish, B C Dow, E A Follett, P L Yap and H Marsden, J. Clin. Microbiol., 31(6), 1493-1503 (1993)). […] The infectious clones, H77C (1a genotype) and J4 L6S (1b genotype) were obtained from R. Purcell (NIH) and the sequences are published in Genbank (AAB67036, see Yanagi, M., Purcell, R. H., Emerson, S. U. and Bukh, J. Proc. Natl. Acad. Sci. U.S.A. 94(16),8738-8743 (1997); AF054247, see Yanagi, M., St Claire, M., Shapiro, M., Emerson, S. U., Purcell, R. H. and Bukh, J, Virology 244 (1), 161-172. (1998)).
The BMS, H77C and J4 L6S strains were used for production of recombinant NS3/4A protease complexes. DNA encoding the recombinant HCV NS3/4A protease complex (amino acids 1027 to 1711) for these strains were manipulated as described by P. Gallinari et al. (see Gallinari P, Paolini C, Brennan D, Nardi C, Steinkuhler C, De Francesco R. Biochemistry. 38(17):5620-32, (1999)). Briefly, a three-lysine solubilizing tail was added at the 3′-end of the NS4A coding region. The cysteine in the P1 position of the NS4A-NS4B cleavage site (amino acid 1711) was changed to a glycine to avoid the proteolytic cleavage of the lysine tag. Furthermore, a cysteine to serine mutation was introduced by PCR at amino acid position 1454 to prevent the autolytic cleavage in the NS3 helicase domain. The variant DNA fragment was cloned in the pET21b bacterial expression vector (Novagen) and the NS3/4A complex was expressed in Escherichia coli strain BL21 (DE3) (Invitrogen) following the protocol described by P. Gallinari et al. (see Gallinari P, Brennan D, Nardi C, Brunetti M, Tomei L, Steinkuhler C, De Francesco R., J Virol. 72(8):6758-69 (1998)) with modifications. Briefly, NS3/4A expression was induced with 0.5 mM Isopropyl β-D-1-thiogalactopyranoside (IPTG) for 22 hr at 20° C. A typical fermentation (10 L) yielded approximately 80 g of wet cell paste. The cells were resuspended in lysis buffer (10 mL/g) consisting of 25 mM N-(2-Hydroxyethyl)Piperazine-N′-(2-Ethane Sulfonic acid) (HEPES), pH7.5, 20% glycerol, 500 mM Sodium Chloride (NaCl), 0.5% Triton-X100, 1 ug/ml lysozyme, 5 mM Magnesium Chloride (MgCl2), 1 ug/ml DnaseI, 5 mM β-Mercaptoethanol (βME), Protease inhibitor—Ethylenediamine Tetraacetic acid (EDTA) free (Roche), homogenized and incubated for 20 mins at 4° C. The homogenate was sonicated and clarified by ultra-centrifugation at 235000 g for lhr at 4° C. Imidazole was added to the supernatant to a final concentration of 15 mM and the pH adjusted to 8.0. The crude protein extract was loaded on a Nickel—Nitrilotriacetic acid (Ni—NTA) column pre-equilibrated with buffer B (25 mM HEPES, pH8.0, 20% glycerol, 500 mM NaCl, 0.5% Triton-X100, 15 mM imidazole, 5 mM βME). The sample was loaded at a flow rate of 1 mL/min. The column was washed with 15 column volumes of buffer C (same as buffer B except with 0.2% Triton-X100). The protein was eluted with 5 column volumes of buffer D (same as buffer C except with 200 mM Imidazole). […]

Assay [2] has as its system HCV replicon in Huh7 cells. Put plainly: HCV replicon cell-based assay (FRET). The note with it: Hepatitis C virus, Huh-7; replicon, activity range; read-out: EC50 a, b, c (Activity Table). More on the design: species or system HCV strain 1B. The text has this: HCV Replicon Cell-based Assay
An HCV replicon whole cell system was established as described by Lohmann V, Korner F, Koch J, Herian U, Theilmann L, Bartenschlager R., Science 285(5424): 110-3 (1999). This system enabled us to evaluate the effects of our HCV Protease compounds on HICV RNA replication. Briefly, using the HCV strain 1B sequence described in the Lohmann paper (Assession number: AJ238799), an HCV cDNA was generated encoding the 5′ internal ribosome entry site (IRES), the neomycin resistance gene, the EMCV (encephalomyocarditis virus)-IRES and the HCV nonstructural proteins, NS3-NS5B, and 3′ non-translated region (NTR). In vitro transcripts of the cDNA were transfected into the human hepatoma cell line, Huh7. […] Resulting cell lines were characterized for positive and negative strand RNA production and protein production over time.
Huh7 cells, constitutively expressing the HCV replicon, were grown in Dulbecco's Modified Eagle Media (DMEM) containing 10% Fetal calf serum (FCS) and 1 mg/ml G418 (Gibco-BRL). Cells were seeded the night before (1.5×10^4 cells/well) in 96-well tissue-culture sterile plates. Compound and no compound controls were prepared in DMEM containing 4% FCS, 1:100 Penicillin/Streptomysin, 1:100 L-glutamine and 5% DMSO in the dilution plate (0.5% DMSO final concentration in the assay). Compound/DMSO mixes were added to the cells and incubated for 4 days at 37° C. After 4 days, plates were rinsed thoroughly with Phosphate-Buffered Saline (PBS) (3 times 150 μl). The cells were lysed with 25 μl of a lysis assay reagent containing the FRET peptide (RET S1, as described for the in vitro enzyme assay). The lysis assay reagent was made from 5× cell Luciferase cell culture lysis reagent(Promega #E153A) diluted to 1× with distilled water, NaCl added to 150 mM final, the FRET peptide diluted to 10 μM final from a 2 mM stock in 100% DMSO. The plate was then placed into the Cytofluor 4000 instrument which had been set to 340 nm excitation/490 emission, automatic mode for 21 cycles and the plate read in a kinetic mode. EC50 determinations were carried out as described for the IC50 determinations.
On the technique in general: In antiviral work, replicon cells carry a viral genome segment that copies itself.

T1 sequence (P27958 1027-1657 C1454S): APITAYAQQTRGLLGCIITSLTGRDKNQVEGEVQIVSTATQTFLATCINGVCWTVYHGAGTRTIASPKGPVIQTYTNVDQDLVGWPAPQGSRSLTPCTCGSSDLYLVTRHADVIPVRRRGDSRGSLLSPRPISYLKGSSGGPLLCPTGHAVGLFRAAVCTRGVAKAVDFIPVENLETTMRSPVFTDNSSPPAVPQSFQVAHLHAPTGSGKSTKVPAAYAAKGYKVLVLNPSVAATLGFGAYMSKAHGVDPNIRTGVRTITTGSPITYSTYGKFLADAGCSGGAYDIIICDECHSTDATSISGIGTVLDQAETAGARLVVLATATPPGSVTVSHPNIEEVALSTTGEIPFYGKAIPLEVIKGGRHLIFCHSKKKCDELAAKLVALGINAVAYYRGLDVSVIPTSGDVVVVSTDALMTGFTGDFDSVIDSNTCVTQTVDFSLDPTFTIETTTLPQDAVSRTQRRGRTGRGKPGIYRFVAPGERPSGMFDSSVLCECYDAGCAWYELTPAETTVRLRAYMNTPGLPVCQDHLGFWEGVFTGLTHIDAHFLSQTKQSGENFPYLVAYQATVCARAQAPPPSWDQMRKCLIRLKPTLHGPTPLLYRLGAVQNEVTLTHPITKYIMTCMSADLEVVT
T1 sequence (P27958 1658-1711 partner, looked up, stated change not applied): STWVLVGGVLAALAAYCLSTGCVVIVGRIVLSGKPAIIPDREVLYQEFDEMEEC

In the case of `C=CC1C[C@]1(NC(=O)[C@@H]1C[C@@H](Oc2cc(-c3ccccc3)nc3cc(OC)ccc23)CN1C(=O)[C@@H](NC(=O)OC(C)(C)C)C(C)(C)C)C(=O)NS(=O)(=O)c1ccc(C)cn1` (stereo in doubt) [Compound 10, (1-{4-(7-Methoxy-2-phenyl-quinolin-4-yloxy)-2-[1-(5-methyl-pyridine-2-sulfonylaminocarbonyl)-2-vinylcyclopropylcarbamoyl]pyrrolidine-1-carbonyl}-2,2-dimethylpropyl)carbamic acid tert-butyl ester], the IC50 (as a rule, the concentration that inhibits the measured activity by half) in assay [1] is < 100 nM. For the same molecule, the EC50 (commonly the concentration at which the effect is half-maximal) in assay [2] fell in the range of 100 to 1000 nM.
Consider `C=CC1C[C@]1(NC(=O)[C@@H]1C[C@@H](Oc2cc(-c3ccccc3)nc3cc(OC)ccc23)CN1C(=O)[C@@H](NC(=O)OC(C)(C)C)C(C)(C)C)C(=O)NS(=O)(=O)c1nnc(NC(C)=O)s1` (stereo in doubt) [Compound 12, {1-[2-[1-(5-Acetylamino-[1,3,4]thiadiazole-2-sulfonylaminocarbonyl)-2-vinylcyclopropylcarbamoyl]-4-(7-methoxy-2-phenyl-quinolin-4-yloxy)-pyrrolidine-1-carbonyl]-2,2-dimethylpropyl}carbamic acid tert-butyl ester], for which the IC50 in assay [1] was in the range of 100 to 1000 nM. Also, the EC50 in assay [2] was in the range of 1000 to 10000 nM.
With `C=CC1C[C@]1(NC(=O)[C@@H]1C[C@@H](Oc2cc(-c3ccccc3)nc3cc(OC)ccc23)CN1C(=O)[C@@H](NC(=O)OC(C)(C)C)C(C)(C)C)C(=O)NS(=O)(=O)c1c(C)noc1C` (stereo in doubt) [Compound 14, {1-[2-[1-(3,5-Dimethylisoxazole-4-sulfonylaminocarbonyl)-2-vinyl-cyclopropylcarbamoyl]-4-(7-methoxy-2-phenyl-quinolin-4-yloxy)-pyrrolidine-1-carbonyl]-2,2-dimethyl-propyl}-carbamic acid tert-butyl ester], in assay [1], the IC50 is < 100 nM. In addition, in assay [2], the EC50 is 100 to 1000 nM.
Regarding `C=CC1C[C@]1(NC(=O)[C@@H]1C[C@@H](Oc2cc(-c3ccccc3)nc3cc(OC)ccc23)CN1C(=O)[C@@H](NC(=O)OC(C)(C)C)C(C)(C)C)C(=O)NS(=O)(=O)c1nc2ccc(OCC)cc2s1` (stereo in doubt) [Compound 15, {1-[2-[1-(6-Ethoxybenzothiazole-2-sulfonylaminocarbonyl)-2-vinyl-cyclopropylcarbamoyl]-4-(7-methoxy-2-phenyl-quinolin-4-yloxy)-pyrrolidine-1-carbonyl]-2,2-dimethylpropyl}-carbamic acid tert-butyl ester], the IC50 in assay [1] lay within 100 to 1000 nM. Also, the half-maximal effective concentration (EC50) in assay [2] lay within 1000 to 10000 nM.
For the molecule `C=CC1C[C@]1(NC(=O)[C@@H]1C[C@@H](Oc2cc(-c3ccccc3)nc3cc(OC)ccc23)CN1C(=O)[C@@H](NC(=O)OC(C)(C)C)C(C)(C)C)C(=O)NS(=O)(=O)c1cc([N+](=O)[O-])c(Cl)s1` (stereo in doubt) [Compound 16, {1-[2-[1-(5-Chloro-4-nitro-thiophene-2-sulfonylaminocarbonyl)-2-vinylcyclopropylcarbamoyl]-4-(7-methoxy-2-phenyl-quinolin-4-yloxy)-pyrrolidine-1-carbonyl]-2,2-dimethyl-propyl}carbamic acid tert-butyl ester], in assay [1], the IC50 was < 100 nM. In assay [2], the concentration for a half-maximal effect (EC50) fell in the range of 100 to 1000 nM.
Turning to `C=CC1C[C@]1(NC(=O)[C@@H]1C[C@@H](Oc2cc(-c3ccccc3)nc3cc(OC)ccc23)CN1C(=O)[C@@H](NC(=O)OC(C)(C)C)C(C)(C)C)C(=O)NS(=O)(=O)c1ccc(-c2cc(C(F)(F)F)nn2C)s1` (stereo in doubt) [Compound 17, [1-(4-(7-Methoxy-2-phenyl-quinolin-4-yloxy)-2-{1-[5-(2-methyl-5-trifluoromethyl-2H-pyrazol-3-yl)thiophene-2-sulfonylaminocarbonyl]-2-vinyl-cyclopropylcarbamoyl}-pyrrolidine-1-carbonyl)-2,2-dimethylpropyl]carbamic acid tert-butyl ester], the half-inhibitory concentration (IC50) in assay [1] was < 100 nM. Moreover, the EC50 in assay [2] lay in the range of 100 to 1000 nM.
Take `C=CC1C[C@]1(NC(=O)[C@@H]1C[C@@H](Oc2cc(-c3ccccc3)nc3cc(OC)ccc23)CN1C(=O)[C@@H](NC(=O)OC(C)(C)C)C(C)(C)C)C(=O)NS(=O)(=O)c1cc(Cl)c(Br)s1` (stereo partly shown) [Compound 6, {-[2-{1-[5-Bromo-4-chlorothiophene-2-sulfonylamino-carbonyl]-2-vinylcyclopropylcarbamoyl}-4-(7-methoxy-2-phenyl-quinolin-4-yloxy)pyrrolidine-1-carbonyl]-2,2-dimethylpropyl}carbarmic acid tert-butyl ester]: the IC50 in assay [1] is < 100 nM. For the same molecule, in assay [2], the EC50 is 100 to 1000 nM.
For `C=CC1C[C@]1(NC(=O)[C@@H]1C[C@@H](Oc2cc(-c3ccccc3)nc3cc(OC)ccc23)CN1C(=O)[C@@H](NC(=O)OC(C)(C)C)C(C)(C)C)C(=O)NS(=O)(=O)c1nc(NC(C)=O)sc1C` (stereo partly shown) [Compound 11, {1-[2-{1-[2-Acetylamino-5-methylthiazole-4-sulfonylaminocarbonyl]-2-vinylcyclopropylcarbamoyl}-4-(7-methoxy-2-phenyl-quinolin-4-yloxy)pyrrolidine-1-carbony]-2,2-dimethylpropyl}carbamic acid tert-butyl ester], in that order: < 100 nM and 1000 to 10000 nM.

(Values after patent US6869964B2, “Heterocyclicsulfonamide hepatitis C virus inhibitors” (Bristol-Myers Squibb Company, priority 2002, dated 2005).)
